For one data set, the target named is T1, TDCEFS (Enterococcus faecalis, UniProt Q838D6).
T1 construct: 6xHis; made in house; host or cells: Escherichia coli BL21 (DE3), plasmid pSK18 (pET15b)
Kind of data set: IC50 curves with carbidopa as inhibitor, levodopa as substrate. The class given is biochemical, Enterococcus faecalis v583.

The next data set addresses TDCEFM (Enterococcus faecium, UniProt Q3Y2S5). The description is as above. The class given is biochemical, Enterococcus faecium W54.
In the next data set the target is T2, ^PTDCEFM (Enterococcus faecium, UniProt A0A481NV25).
T2 construct: 6xHis; made in house; host or cells: Escherichia coli BL21 (DE3), plasmid pSK22 (pET15b)
T2 sequence (A0A481NV25 whole entry): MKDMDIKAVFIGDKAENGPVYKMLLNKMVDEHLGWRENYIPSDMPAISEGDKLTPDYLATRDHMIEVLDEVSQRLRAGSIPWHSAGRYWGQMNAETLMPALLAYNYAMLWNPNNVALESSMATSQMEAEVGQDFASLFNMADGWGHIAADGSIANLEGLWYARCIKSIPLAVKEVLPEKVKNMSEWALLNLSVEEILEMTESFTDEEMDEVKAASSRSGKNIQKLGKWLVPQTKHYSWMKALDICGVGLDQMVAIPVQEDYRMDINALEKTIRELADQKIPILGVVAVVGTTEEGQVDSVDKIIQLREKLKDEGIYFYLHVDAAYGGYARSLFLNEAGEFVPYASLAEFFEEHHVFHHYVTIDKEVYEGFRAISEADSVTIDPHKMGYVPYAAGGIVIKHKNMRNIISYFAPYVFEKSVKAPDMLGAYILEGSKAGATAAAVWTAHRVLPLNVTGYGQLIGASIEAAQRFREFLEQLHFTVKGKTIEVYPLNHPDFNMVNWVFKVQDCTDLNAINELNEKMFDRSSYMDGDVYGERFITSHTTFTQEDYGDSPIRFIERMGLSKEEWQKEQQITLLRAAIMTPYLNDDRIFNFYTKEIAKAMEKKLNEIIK
The data set is described as above. Format: biochemical, Enterococcus faecium W54.

Data set [1] concerns the target T3, human DOPA decarboxylase (DDC) (Homo sapiens, UniProt P20711).
T3 construct: 6xHis; host or cells: Escherichia coli BL21 (DE3)
T3 sequence (P20711 1-480): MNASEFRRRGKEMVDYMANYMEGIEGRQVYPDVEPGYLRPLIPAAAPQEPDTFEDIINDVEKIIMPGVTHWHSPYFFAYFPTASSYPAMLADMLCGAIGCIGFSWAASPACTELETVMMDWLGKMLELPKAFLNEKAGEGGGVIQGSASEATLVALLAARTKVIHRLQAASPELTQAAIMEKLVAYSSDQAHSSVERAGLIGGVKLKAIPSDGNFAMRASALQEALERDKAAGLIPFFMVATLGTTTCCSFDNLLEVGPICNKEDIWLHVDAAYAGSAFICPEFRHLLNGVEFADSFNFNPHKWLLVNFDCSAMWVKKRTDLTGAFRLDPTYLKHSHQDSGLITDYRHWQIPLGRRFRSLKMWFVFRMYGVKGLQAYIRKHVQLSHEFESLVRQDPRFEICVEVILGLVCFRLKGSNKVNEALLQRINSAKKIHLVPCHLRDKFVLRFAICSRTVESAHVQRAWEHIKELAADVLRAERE
The data set is described as above. The class given is biochemical.

The target of data set [2] is bacterial TDCs versus human DOPA decarboxylase. Kind of data set: Comparison of the inhibitory constants (Ki^TDC/Ki^DDC). The settings on record: over the three bacterial TDCs. Format: biochemical. On the procedure:
(§1) Enzyme kinetics were performed in 200 mM potassium acetate buffer containing 0.1 mM PLP (pyridoxal-5-phosphate, P9255, Sigma, The Netherlands) and 10 nM of enzyme at pH 5 for TDCEFS and TDCEFM, and pH 4.5 for ^PTDCEFM. […] Michaelis–Menten kinetic curves were fitted using GraphPad Prism 7. […] Reactions were stopped with 0.7% HClO4, filtered and analyzed on the HPLC-ED-system described below.

Data set [3] has as its system E. faecium W54. Kind of data set: Levodopa decarboxylation by stationary batch cultures co-incubated with human DOPA decarboxylase inhibitors. The settings on record: E. faecium W54, OD600 ~2.0, stationary phase, 15 min, 100 µM levodopa, equimolar or 21.7 µM carbidopa.
The subject of data set [4] is E. faecalis v583. Described as above. The settings on record: E. faecalis v583, OD600 ~2.0, stationary phase, 15 min, 100 µM levodopa, equimolar or 21.7 µM carbidopa.
Data set [5] deals with T4, TDCEFS (tyrosine decarboxylase from E. faecalis v583).
T4 construct: 6xHis; made in house; host or cells: Escherichia coli BL21 (DE3), plasmid pSK18 (pET15b)
Kind of data set: Michaelis–Menten enzyme kinetics of purified tyrosine decarboxylase. The class given is biochemical, Enterococcus faecalis v583.
Text: (§2) To further characterize the substrate specificity and kinetic parameters of the bacterial TDCs, tdc genes from E. faecalis v583 (TDCEFS) and E. faecium W54 (TDCEFM and ^PTDCEFM) were expressed in Escherichia coli BL21 (DE3) and then purified.
(§3) The human DOPA decarboxylase gene cloned in pET15b was ordered from GenScript (Piscataway, USA) (Supplementary Table 6). TDC-encoding genes from E. faecalis v583 (TDCEFS, accession: EOT87933), E. faecium W54 (TDCEFM, accession: MH358385; ^PTDCEFM, accession: MH358384) were amplified using Phusion High-fidelity DNA polymerase and primers listed in Supplementary Table 8. All amplified genes were cloned in pET15b, resulting in pSK18, pSK11, and pSK22, respectively (Supplementary Table 6). Plasmids were maintained in E. coli DH5α and verified by Sanger sequencing before transformation to E. coli BL21 (DE3). Overnight cultures were diluted 1:50 in fresh LB medium with the appropriate antibiotic and grown to OD600 = 0.7–0.8. Protein translation was induced with 1 mM Isopropyl β-D-1-thiogalactopyranoside (IPTG, 11411446001, Roche Diagnostics) and cultures were incubated overnight at 18 °C. The cells were washed with 1/5th of 1 × ice-cold PBS and stored at −80 °C or directly used for protein isolation. Cell pellets were thawed on ice and resuspended in 1/50th of buffer A (300 mM NaCl; 10 mM imidazole; 50 mM KPO4, pH 7.5) containing 0.2 mg/mL lysozyme (105281, Merck) and 2 µg/mL DNAse (11284932001, Roche Diagnostics), and incubated for at least 10 min on ice before sonication (10 cycles of 15 s with 30 s cooling at 8 microns amplitude) using Soniprep-150 plus (Beun de Ronde, Abcoude, The Netherlands). Cell debris were removed by centrifugation at 20,000 × g for 20 min at 4 °C. The 6 × his-tagged proteins were purified using a nickel-nitrilotriacetic acid (Ni-NTA) agarose matrix (30250, Qiagen). Cell-free extracts were loaded on 0.5 ml Ni-NTA matrixes and incubated on a roller shaker for 2 h at 4 °C. The Ni-NTA matrix was washed three times with 1.5 ml buffer B (300 mM NaCl; 20 mM imidazole; 50 mM KPO4, pH 7.5) before elution with buffer C (300 mM NaCl; 250 mM imidazole; 50 mM KPO4, pH 7.5). Imidazole was removed from purified protein fractions using Amicon Ultra centrifugal filters (UFC505024, Merck) and washed three times and reconstituted in buffer D (50 mM Tris-HCL; 300 mM NaCl; pH 7.5) for TDCEFS, and TDCEFM, buffer E (100 mM KPO4; pH 7.4) for ^PTDCEFM and buffer F (100 mM KPO4; 0.1 mM pyridoxal-5-phosphate; pH 7.4) for DDC. Protein concentrations were measured spectrophotometrically (Nanodrop 2000, Isogen, De Meern, The Netherlands) using the predicted extinction coefficient and molecular weight from ExPASy ProtParam tool (www.web.expasy.org/protparam/).
as §1

Data set [6] relates to TDCEFM (tyrosine decarboxylase from E. faecium W54). The description is as above. Format: biochemical, Enterococcus faecium W54.
Text: as §2, §3, §1

In data set [7] the test system is T5, ^PTDCEFM (paralogous tyrosine decarboxylase from E. faecium W54).
T5 construct: 6xHis; made in house; host or cells: Escherichia coli BL21 (DE3), plasmid pSK22 (pET15b)
Kind of data set: Michaelis–Menten enzyme kinetics of purified paralogous tyrosine decarboxylase. Format: biochemical, Enterococcus faecium W54.
Text: as §2, §3, §1

Data set [8] relates to E. faecalis v583. Kind of data set: Bacterial cultures incubated anaerobically with levodopa, HPLC-ED. The class given is cell-based, Enterococcus faecalis v583. The following applies: E. faecalis v583 (enterococcal isolates), overnight culture, anaerobic, 37 °C, 100 µM levodopa.
Data set [9] has as its system E. faecium W54. The data set is described as above. Format: cell-based, Enterococcus faecium W54. The settings on record: E. faecium W54 (enterococcal isolates), overnight culture, anaerobic, 37 °C, 100 µM levodopa.
For the next data set, the system named is L. brevis W63. Described as above. The settings on record: L. brevis W63, overnight culture, anaerobic, 37 °C, 100 µM levodopa.
Substrate in data set [10]: N[C@@H](Cc1ccc(O)c(O)c1)C(=O)O
Kind of data set: purified protein, by the assay type. The following applies: other: DDC, levodopa as substrate, as used for Ki.

Where [11] appears, read: levodopa as substrate, as used for Ki.
Where [12] appears, read: pH 5.0, 10 nM enzyme, substance as substrate.
[13] abbreviates: ^PTDCEFM, pH 4.5, 10 nM enzyme, substance as substrate.

T1 sequence (Q838D6 whole entry): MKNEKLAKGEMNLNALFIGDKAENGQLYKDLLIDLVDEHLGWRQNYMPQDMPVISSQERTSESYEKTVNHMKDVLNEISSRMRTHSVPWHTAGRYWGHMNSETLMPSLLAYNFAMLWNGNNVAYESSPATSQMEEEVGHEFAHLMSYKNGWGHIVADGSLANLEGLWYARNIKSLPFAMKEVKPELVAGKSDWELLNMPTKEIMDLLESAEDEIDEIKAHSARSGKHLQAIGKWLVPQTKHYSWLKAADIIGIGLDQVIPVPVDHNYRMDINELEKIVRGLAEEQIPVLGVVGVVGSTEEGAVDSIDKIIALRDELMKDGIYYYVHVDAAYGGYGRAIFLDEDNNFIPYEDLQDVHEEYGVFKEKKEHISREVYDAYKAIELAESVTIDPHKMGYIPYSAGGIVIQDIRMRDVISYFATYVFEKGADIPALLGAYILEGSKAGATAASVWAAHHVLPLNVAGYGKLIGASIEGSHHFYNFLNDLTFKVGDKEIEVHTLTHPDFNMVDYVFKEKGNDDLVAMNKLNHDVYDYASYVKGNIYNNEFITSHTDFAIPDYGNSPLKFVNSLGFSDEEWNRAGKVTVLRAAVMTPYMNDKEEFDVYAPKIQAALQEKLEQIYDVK
TDCEFM, sequence (Q3Y2S5 entry or part of it): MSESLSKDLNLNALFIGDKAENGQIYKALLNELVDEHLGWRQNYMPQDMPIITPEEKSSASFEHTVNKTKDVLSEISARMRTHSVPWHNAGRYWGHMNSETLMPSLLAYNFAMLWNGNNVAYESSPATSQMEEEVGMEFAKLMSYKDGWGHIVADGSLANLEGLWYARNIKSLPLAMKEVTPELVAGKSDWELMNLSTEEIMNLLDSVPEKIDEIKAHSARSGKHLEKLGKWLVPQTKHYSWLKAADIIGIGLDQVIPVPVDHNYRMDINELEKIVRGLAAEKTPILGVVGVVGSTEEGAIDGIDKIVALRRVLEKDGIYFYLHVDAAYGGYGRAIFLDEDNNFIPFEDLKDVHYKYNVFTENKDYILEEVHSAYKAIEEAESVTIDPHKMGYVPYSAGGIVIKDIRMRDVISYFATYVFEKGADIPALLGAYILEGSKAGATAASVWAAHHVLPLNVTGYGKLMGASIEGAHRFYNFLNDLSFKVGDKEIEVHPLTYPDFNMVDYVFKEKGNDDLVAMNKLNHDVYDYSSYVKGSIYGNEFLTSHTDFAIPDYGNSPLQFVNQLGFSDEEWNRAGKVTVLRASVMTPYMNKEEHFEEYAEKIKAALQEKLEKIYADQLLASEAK

The IC50 is the midpoint of a concentration-inhibition curve. High values mean weaker potency, low ones greater potency. As to `C[C@@](Cc1ccc(O)c(O)c1)(NN)C(=O)O` [carbidopa], the IC50 was 93.8 µM against TDCEFS, 79.2 µM on TDCEFM, 201 µM at ^PTDCEFM and 10 nM in data set [1]. Also, the HillSlope on TDCEFS (TDCEFS, IC50 curve) worked out at 1.6; on TDCEFM (TDCEFM, IC50 curve), 1.3; on ^PTDCEFM (PTDCEFM, IC50 curve) it was 1.1; in [1] (DDC, IC50 curve), 1.16. The “[IC50]/[s]” value is listed as 9% at TDCEFS (TDCEFS, [S] levodopa 1000 µM); 8% on TDCEFM (TDCEFM, [S] levodopa 1000 µM); 40% on ^PTDCEFM (PTDCEFM, [S] levodopa 500 µM); 0.01% in [1] (DDC, [S] levodopa 100 µM). Moreover, the Ki on TDCEFS (read-out: Ki=IC50/(1+([S]/Km))) is 70.6 µM; at TDCEFM (read-out: Ki=IC50/(1+([S]/Km))), 69.6 µM; at ^PTDCEFM (read-out: Ki=IC50/(1+([S]/Km))) it was 95.1 µM; in [1] (read-out: Ki=IC50/(1+([S]/Km))) it was 5 nM. Besides, the “Ki^TDC/Ki^DDC, times more potent inhibitor of human DOPA decarboxylase than bacterial TDCs” value in data set [2] is 1.4–1.9 × 10^4. In addition, the “levodopa conversion by batch culture on co-incubation with carbidopa” value in the data set with E. faecium W54 [3] and with E. faecalis v583 [4] was “unaffected” in each case.
One may read the Km as the substrate concentration at which the rate is half of its maximum. The term Vmax denotes the top rate of the reaction or transport when substrate is in excess. As for `N[C@@H](Cc1ccc(O)c(O)c1)C(=O)O` [levodopa, L-3,4-dihydroxyphenylalanine], the Km came to 3.04 mM in [5] (setting [11]); 3 ± 0.4 mM in [5] (setting [12]); 7.24 mM in [6] (setting [11]); 7.2 ± 0.8 mM in data set [6] (setting [12]); 448 µM in data set [7] (PTDCEFM, levodopa as substrate, as used for Ki); 400 ± 100 µM in [7] (setting [13]). The Kcat in data set [5] (setting [12]) turned out to be 3531 ± 137 min⁻¹; in data set [6] (setting [12]), 2549 ± 133 min⁻¹; in data set [7] (setting [13]), 342.4 ± 21 min⁻¹. The Vmax in data set [5] (setting [12]) was found to be 35.3 ± 1.4 µM/min; in data set [6] (setting [12]), 25.5 ± 1.3 µM/min; in [7] (setting [13]), 3.4 ± 0.2 µM/min.
In the case of `N[C@@H](Cc1ccc(O)cc1)C(=O)O` [tyrosine, L-tyrosine], the Kcat in data set [5] (setting [12]) is 6963 ± 288 min⁻¹; in data set [6] (setting [12]), 2204 ± 247 min⁻¹; in data set [7] (setting [13]), 435.6 ± 19.2 min⁻¹. The Km worked out at 0.6 ± 0.1 mM in [5] (setting [12]), 1.5 ± 0.3 mM in [6] (setting [12]) and 200 ± 50 µM in data set [7] (setting [13]). For the same molecule, the results for the Vmax in [5] (setting [12]), in data set [6] (setting [12]) and in data set [7] (setting [13]) were 69.6 ± 2.9 µM/min, 22 ± 2.5 µM/min and 4.4 ± 0.2 µM/min, respectively. Further, the “conversion of tyrosine and levodopa into tyramine and dopamine by the culture” value in the data set on E. faecalis v583 [8], with E. faecium W54 [9] and with L. brevis W63 was “able to convert” in each case.

B1: human DOPA decarboxylase (DDC) (Homo sapiens) (protein)
chain: T3 sequence (P20711 1-480)
For the molecule B1, the Km in data set [10] is 87.3 µM.

Values taken from PMC6338741 (Nature Communications, 2019).
